# Patent publication EP1229025A1, “NOVEL QUINAZOLINE DERIVATIVES” (Japan Energy Corporation, priority 1999, dated 2001)
# Legend:
# Assay type in all cases: cell-based
# [1] = test system: TNF-α production; assay: TNF-α production inhibiting test using human PBMC (LPS stimulus, ELISA); conditions: LPS 10 ng/ml, 16 hours, ELISA of culture supernatants
# Procedure: Example 145: TNF-α production inhibiting test using human PBMC (peripheral blood mononuclear cells)
# Preparation of human PBMC
# The blood of a healthy person was taken with a vacuum blood-collecting tube (Nipro neotube) and diluted up to two-fold with physiological saline (Otsuka Pharmaceuticals). To the diluted blood was added 6% dextran T-500 (prepared after dissolution in physiological saline (Otsuka Pharmaceuticals) and sterilization with an autoclave) so as to make a final concentration of 1%. The solution was subjected to tumble mixing and allowed to stand at room temperature for 30 minutes to precipitate the erythrocytes. The supernatant was collected and subjected to centrifugation at 20 °C and at 1,500 rpm for 10 minutes. The cells were suspended in 3 ml of RPMI1640 culture medium (Asahi Technogllas) and overlaid on the solution surface of 3 ml Lymphoprep (NYCOMED). Further, with 1.5 ml of RPMI1640 culture medium being added to the tube which had contained the cell suspension liquid, the cells attached to the tube, which had remained uncollected, were suspended for collection and overlaid on the Lymphoprep previously mentioned. This operation was repeated again. After centrifugation at 20 °C and at 2,000 rpm for 30 minutes, there was collected a fraction of peripheral blood mononuclear cells present in the boundary surface between the Lymphoprep and the RPMI1640 culture medium. The cells were washed twice with 10 ml RPMI1640 culture medium to remove the Lymphoprep and then suspended in a RPMI1640 culture medium added with 10% bovine fetal serum (IRVINE SCIENTIFIC), 100 U/ml penicillin and 100 µg/ml streptomycin (hereinafter referred to as cRPMI1640 culture medium). The number of the cells was measured by Tuerk dying, and the cells, after adjustment to 3 × 10^6 cells/ml, were planted in 100 µl/well on a 96-well plate (FALCON). The cells were cultured at 37 °C under 5%CO2 atmosphere for about 5 hours.
# Induction of TNF-α production by LPS stimulus
# LPS (E.coli 0111:B4, DIFCO), which had been prepared to 10 mg/ml with water and kept at -20, was diluted to 100 µg/ml with cRPMI1640 culture medium and subjected to sterile filtration. The 100 µg/ml LPS was diluted with cRPMI1640 culture medium to prepare 20 ng/ml LPS. A compound to be tested which was dissolved in DMSO at 1,000-fold concentration was diluted to 500-fold with cRPMI1640 culture medium containing 20 ng/ml LPS and added in 100 µl/well to the cells which had been planted on the previously mentioned 96-well plate (final concentration of LPS: 10 ng/ml). For use as the control group, the solutions were made by diluting DMSO of the same volume as in the test compounds with cRPMI1640 culture medium containing 20 ng/ml LPS, and they were added to the cells. These cells were cultured at 37 °C under 5%CO2 atmosphere for 16 hours.
# Determination of TNF-α activity (ELISA method)
# To the 96-well plate the mouse anti-human TNF-α antibody (prepared to 2 µg/ml with Coating buffer*^1) was added so as to make 100 µl/well and allowed to stand at 4 °C overnight. After 5-times washing with Wash buffer*^2 (300µl/well), the Blocking buffer*^3 was added to the solutions, which were allowed to stand 37 °C for 2 hours. The culture supernatants were diluted up to 5-fold in the plate (supernatant 20 µl being added to 80 µl of cRPMI1640 culture medium). Simultaneously, for using for a calibration curve, a series of dilution of recombinant human TNF-α was prepared arid allowed to stand 37 °C for 1 hour. After 5-times washing with Wash buffer (300 µl /well), biotinylated rabbit anti-human TNF-α antibody (prepared to 0.25 µg/ml with Antibody diluent*^4) was added so as to make 100 µl /well and allowed to stand at 37 °C for 1 hour. After 5-times washing with Wash buffer (300 µl /well), Streptavidin-Horseradish peroxidase(prepared to 1:4000 with Antibody diluent) was added to make 100 µl /well and allowed to stand at 37 °C for 15 minutes. […]
# [2] = test system: IL-4 production; assay: IL-4 production inhibiting test in OVA-stimulated spleen cells of immunised mouse (ELISA); conditions: 72 h, spleen cells of OVA-immunised BALB/c-mouse, OVA 0.5 mg/ml, 3 days
# Procedure: (§1) Example 146: IL-4 and IL-5 production inhibiting test
# (§2) A 6-weeks-old BALB/c-mouse (Nippon Charles River) was bred preparatively for 1 week and given at the day 0 and day 14 intraperitoneal injection of 100 µl PBS to give immunity which PBS contained 0.1 mg/ml of Ovalbumin(OVA) and 40 mg/ml of aluminum hydroxide. At the day 21 the spleen was taken out from the mouse. The spleen was dissected with a pincette in cooled PBS, passed through a mesh and subjected to centrifugation at 4 °C at 1,500 rpm for 5 minutes. The cells was added with 5 ml of 0.2% NaCI to destroy erythrocytes, and then was made isotonic by adding 5 ml of 1.6% of NaCl. After centrifugation at 4 °C, 1,500 rpm for 5 minutes, the cells were washed twice with 10 ml ofRPMI1640 culture medium. The obtained spleen cells were suspended in cRPMI1640 medium, and the number of the cells was measured by Tuerk dying. After being adjusted to 1 × 10^7 cells/ml, the cells were planted in 100 µl/well on a 96-well plate (FALCON). The cells were cultured at 37 °C under 5% CO2 atmosphere for about 4 hours. OVA was prepared to 10 mg/ml with cRPMI1640 culture medium and subjected to sterile filtration. The 10 mg/ml OVA was diluted with cRPMI1640 culture medium to give 1 mg/ml OVA. A compound to be tested which was dissolved in DMSO in at 1,000-fold concentration was diluted up to 500-fold with cRPMI1640 culture medium containing 1 mg/ml OVA and added in 100 µl/well to the cells which had been planted on the previously mentioned 96-well plate (final concentration of OVA: 0.5 mg/ml). As the controls, the solutions were made by diluting DMSO of the same volume as with the test compounds with cRPMI1640 culture medium containing 1 mg/ml OVA, and they were added to the cells. These cells were cultured at 37 °C under 5%CO2 atmosphere for 3 days. IL-4 and IL-5 in the culture supernatants after 3 days were quantitatively determined by ELISA method. IL-4 and IL-5 were quantitatively determined using IL-4 Development Kit (Genzyme Techne) and mouse IL-5 MiniKit (ENDOGEN), respectively. The production inhibiting rates of each tested compound against IL-4 are shown in Table 22, those against IL-5 in Table 23.
# [3] = test system: IL-5 production; assay: IL-5 production inhibiting test in OVA-stimulated spleen cells of immunised mouse (ELISA); conditions: 72 h, spleen cells of OVA-immunised BALB/c-mouse, OVA 0.5 mg/ml, 3 days
# Procedure: as §1, §2
SMILES,IC50 [1] [nM],IC50 [2] [nM],IC50 [3] [nM]
"O=[N+]([O-])c1cc2c(NCc3ccc4c(c3)OCO4)ncnc2cc1N1CCNCC1 [Example 31, 4-[3,4-(methylenedioxy)benzylamino]-6-nitro-7-(piperazin-1-yl)quinazoline]",80,10,200
"O=[N+]([O-])c1cc2c(NCc3cccs3)ncnc2cc1N1CCNCC1 [Example 48, 6-nitro-7-(piperazin-1-yl)-4-[(2-thienyl)methylamino]quinazoline]",–,100,900
"O=[N+]([O-])c1cc2c(NCc3ccco3)ncnc2cc1N1CCNCC1 [Example 51, 4-[(2-furyl)methylamino]-6-nitro-7-(piperazin-1-yl)quinazoline]",–,100,–
"Nc1ccc(CCNc2ncnc3cc(N4CCNCC4)c([N+](=O)[O-])cc23)cc1 [Example 81, 4-[2-(4-anilino)ethylamino]-6-nitro-7-(piperazin-1-yl)quinazoline]",2500,–,–
"CC(CNc1ncnc2cc(N3CCNCC3)c([N+](=O)[O-])cc12)c1ccccc1 (stereo not shown) [Example 82, 4-(2-methyl-2-phenylethylamino)-6-nitro-7-(piperazin-1-yl)quinazoline]",7200,–,–
"O=[N+]([O-])c1cc2c(NC3CCN(Cc4ccccc4)CC3)ncnc2cc1N1CCNCC1 [Example 86, 4-[(1-benzyl-4-piperidyl)amino]-6-nitro-7-(piperazin-1-yl)quinazoline]",6400,–,–
"O=[N+]([O-])c1cc2c(N3CCN(c4ccccc4)CC3)ncnc2cc1N1CCNCC1 [Example 98, 6-nitro-4-(4-phenylpiperazinyl)-7-piperazinylquinazoline]",2100,–,–
"COc1ccc(N2CCN(c3ncnc4cc(N5CCNCC5)c([N+](=O)[O-])cc34)CC2)cc1 [Example 99, 4-[(4-methoxyphenyl)piperazinyl]-6-nitro-7-piperazinylquinazoline]",900,–,–
"O=[N+]([O-])c1cc2c(N3CCN(c4ccc(Cl)cc4)CC3)ncnc2cc1N1CCNCC1 [Example 101, 4-[(4-chlorophenyl)piperazinyl]-6-nitro-7-piperazinylquinazoline]",1400,–,–
"Fc1ccc(CNc2ncnc3cc(N4CCNCC4)c(F)cc23)cc1 [Example 113, 6-fluoro-4-(4-fluorobenzylamino)-7-(piperazin-1-yl)quinazoline]",900,–,–
"Fc1cc2c(NCc3ccc4c(c3)OCO4)ncnc2cc1N1CCNCC1 [Example 114, 6-fluoro-4-[3,4-(methylenedioxy)benzylamino]-7-(piperazin-1-yl)quinazoline]",600,–,–
"Fc1cc2c(Nc3ccc4c(c3)OCO4)ncnc2cc1N1CCNCC1 [Example 116, 6-fluoro-4-[(3,4-methylenedioxy)anilino]-7-(piperazin-1-yl)quinazoline]",3000,–,–
"Fc1ccc(CCNc2ncnc3cc(N4CCNCC4)c(F)cc23)cc1 [Example 117, 6-fluoro-4-[2-[(4-fluoro)phenyl]ethylamino]-7-(piperazin-1-yl)quinazoline]",4700,–,–
"Fc1cc2c(NCCc3ccc4c(c3)OCO4)ncnc2cc1N1CCNCC1 [Example 118, 6-fluoro-4-[2-[(3,4-methylenedioxy)phenyl]ethylamino]-7-(piperazin-1-yl)quinazoline]",2200,–,–
"Fc1ccc(CCCNc2ncnc3cc(N4CCNCC4)c(F)cc23)cc1 [Example 119, 6-fluoro-4-[3-[(4-fluoro)phenyl]propylamino]-7-(piperazin-1-yl)quinazoline]",2300,–,–
"Fc1cc2c(NCCCc3ccc4c(c3)OCO4)ncnc2cc1N1CCNCC1 [Example 120, 6-fluoro-4-[3-[(3,4-methylenedioxy)phenyl]propylamino]-7-(piperazin-1-yl)quinazoline]",2000,–,–
"Fc1cc2c(NCc3ccc4c(c3)OCCO4)ncnc2cc1N1CCNCC1 [Example 121, 4-[(3,4-ethylenedioxy)benzylamino]-6-fluoro-7-(piperazin-1-yl)quinazoline]",2500,–,–
"CN(Cc1ccc2c(c1)OCO2)c1ncnc2cc(N3CCNCC3)c(F)cc12 [Example 122, 6-fluoro-4-[[N-methyl-N'-(3,4-methylenedioxybenzyl)]amino]-7-(piperazin-1-yl)quinazoline]",600,–,–
"O=[N+]([O-])c1cc2c(Nc3ccc(F)cc3)ncnc2cc1N1CCNCC1 [Example 123, 4-[(4-fluoro)anilino]-6-nitro-7-(piperazin-1-yl)quinazoline]",600,–,–
"O=[N+]([O-])c1cc2c(Nc3ccc4c(c3)OCO4)ncnc2cc1N1CCNCC1 [Example 124, 4-[(3,4-methylenedioxy)anilino]-6-nitro-7-(piperazin-1-yl)quinazoline]",1700,–,–
O=[N+]([O-])c1cc2c(NCCc3ccc4c(c3)OCO4)ncnc2cc1N1CCNCC1 [Example 125],3300,–,–
"O=[N+]([O-])c1cc2c(NCCCc3ccc(F)cc3)ncnc2cc1N1CCNCC1 [Example 126, 4-[3-[(4-fluoro)phenyl]propylamino]-6-nitro-7-(piperazin-1-yl)quinazoline]",700,–,–
"O=[N+]([O-])c1cc2c(NCCCc3ccc4c(c3)OCO4)ncnc2cc1N1CCNCC1 [Example 127, 4-[3-[(3,4-methylenedioxy)phenyl]propylamino]-6-nitro-7-(piperazin-1-yl)quinazoline]",500,–,–
"O=[N+]([O-])c1cc2c(NCc3ccc(F)c(F)c3)ncnc2cc1N1CCNCC1 [Example 128, 4-[(3,4-difluoro)benzylamino]-6-nitro-7-(piperazin-1-yl)quinazoline]",700,–,–
"O=[N+]([O-])c1cc2c(NCc3ccc4c(c3)OCCO4)ncnc2cc1N1CCNCC1 [Example 130, 4-[(3,4-ethylenedioxy)benzylamino]-6-nitro-7-(piperazin-1-yl)quinazoline]",2500,–,–
